{"source": "patent US11357786B2", "about": "“Synthetic disugar hydrocarbons as natural analogs to control microbial behaviors” (Syracuse University, priority 2014, dated 2022)", "key": {"PAO1-EGFP biofilm": {"test_system": "PAO1-EGFP biofilm", "assay": "Biofilm on steel coupons, fluorescence / CLSM", "type": "cell-based, Pseudomonas aeruginosa", "conditions": "160 μM, 24 h, LB media", "description": "A crystal violet (CV) assay was used to measure the amount of PAO1 biofilm formed after 24 h of bacterial inoculation. The fluorescence of green fluorescent proteins (GFP) expressed by PAO1-GFP was measured to directly quantify bacterial adhesion on polystyrene black 96 well plates with and without maltose derivatives after 2 h of bacterial inoculation. To evaluate the potential of maltose derivatives as both anti-biofilm and anti-adhesion agents, they were compared to a brominated furanone (BF8) known to inhibit biofilm formation, and two generic surfactants, sodium dodecyl sulfate (SDS) and tetra (ethylene glycol) monododecyl ether (C12EG4OH). […] P. aeruginosa strain PAO1-EGFP that constitutively producing green fluorescent protein was allowed to form biofilm on sterile steel coupons.\nConfocal laser scanning microscopy (CLSM) based biofilm inhibition assay. Steel coupons (˜1×1 cm) were washed with EtOH, dried under a stream of nitrogen and then sterilized in an autoclave. Overnight culture of PAO1/EGFP (OD600 ˜1.0) grown in LB media (supplemented with 300 μg/mL of carbenicillin), was sub-cultured to OD600˜0.01 and then the OD600 was allowed to reach ˜0.1. Aliquot (600 μL) of PAO1/EGFP subculture OD600˜0.1 was then added into the wells of a 24-well micro titer plate. DSHs were then introduced into the assigned wells to reach a resultant concentration of 160 μM. Bacterial sub-culture with no agent served as positive control. Sterile steel coupons were then placed into the wells and the plates were wrapped with saran wrap and incubated for 24 h at 37° C. under static conditions. After 24 hours, the steel coupons were removed and washed by dipping in PBS buffer (2 washes) and the dried by holding with a forcep and gently dabbing the edge on a bleached paper (KIM wipes). The dried steel coupons were viewed under confocal laser scanning microscope (CLSM). Images were taken at 4 random locations on each steel coupons. Z-stacked images were also taken to determine the relative thickness of the biofilm."}, "[1]": {"test_system": "rhl quorum sensing system", "assay": "rhl quorum sensing gene reporter assay (prhlI-LVAgfp)", "type": "cell-based, Pseudomonas aeruginosa", "conditions": "natural autoinducers present", "source_text": "The ability of the maltoside derivatives to antagonize the two quorum sensing circuits las and/or rhl of P. aeruginosa was investigated by using two reporter strains (PAO1/plasI-LVAgfp, PAO1/prhlI-LVAgfp). These reporter strains produce natural AHL signals, and binding of such signal molecules to the Lux-type receptor proteins ([…]) activates the expression of green fluorescent protein (GFP) encoded by the plasmid.\nOne of the recent approach for a nonmicrobicidal control of biofilm aims to develop agents that disrupt bacterial cell-to-cell communication by acting as mimics to the natural molecules (autoinducer) that bind […], which are encoded by las and rhl gene. The binding of these mimics with lasR and rhlR proteins either activates or represses the expression of lasI or rhlI.^6 In gene reporter assay, the expression of lasI and rhlI proteins is quantified by measuring expression of green fluorescent protein (GFP) fused to lasI and rhlI genes.^5 Two reporter strains of Pseudomonas aeruginosa (PAO1/plasI_LVAgfp and PAO1/prhlI_LVAgfp) express green fluorescence protein on activation of las or rhl quorum sensing system. The activation or repression of las or rhl quorum sensing system in PA was tested by various DSHs.\nStrains PAO1/plasI-LVAgfp and PAO1/prhlI-LVAgfp were grown overnight in LB-media that was supplemented with 300 μg/mL carbenicillin and after 16 hours, the bacteria were sub cultured in LB media (supplemented with 300 μg/mL carbenicillin) to OD600 as 0.01. The OD600 was allowed to reach 0.1 and then 200 μL of culture was aliquoted into the wells of 96-well microtiter plate. DSHs were then added to assigned wells at two different concentrations (85 μM and 160 μM). No agent was added to the well for positive control. The plates then incubated at 37° C. for 24 h in a rotary shaking incubator (250 rpm). The culture from each well was then transferred to corresponding wells of a black walled flat-bottom, 96-well plate (μClear, Greiner-One 655096). The fluorescence and OD absorbance in each well was measured by Synergy 2 multi-mode microplate reader with aGen5 data analysis software. […] Fluorescence was measured at an excitation wavelength of 500 nm and an emission wavelength of 540 nm.\nFor an antagonist assay, overnight culture of P. aeruginosa PAO1/plasI-LVAgfp (las system) or PAO1/prhlI-LVAgfp (rhl system) in LB broth (supplemented with 300 μg/mL carbenicillin) was grown from a single colony on a LB agar plate supplemented with 300 μg/mL carbenicillin. […] The fluorescence and OD absorbance in each well was measured by Synergy 2 multi-mode microplate reader with Gen5 data analysis software. […] Fluorescence was measured at an excitation wavelength of 500 nm and an emission wavelength of 540 nm. […]"}}}
{"smiles": "CC(C)CCCC(C)CCCC(C)CCO[C@@H]1O[C@H](CO)[C@@H](O[C@@H]2O[C@H](CO)[C@@H](O)[C@H](O)[C@H]2O)[C@H](O)[C@H]1O", "note": "(stereo partly drawn) [SFβC (12), saturated famesyl-β-cellobioside]", "values": [{"measurement": "PAO1-EGFP biofilm on stainless steel coupons (CLSM)", "setting": "PAO1-EGFP biofilm", "result": "decreased the fluorescence signal significantly"}, {"measurement": "Change of GFP fluorescence, rhl reporter strain PAO1/prhlI-LVAgfp (antagonist assay)", "setting": "[1]", "result": "neither SFβC (12) nor SFαC (13) caused a significant change in the fluorescence"}, {"measurement": "Change of GFP fluorescence, rhl reporter strain PAO1/prhlI-LVAgfp (antagonist assay)", "setting": "[1]; listed as 12: SFβC", "result": "no significant change in the fluorescence"}]}
{"smiles": "CC(C)CCCC(C)CCCC(C)CCO[C@H]1O[C@H](CO)[C@@H](O[C@@H]2O[C@H](CO)[C@@H](O)[C@H](O)[C@H]2O)[C@H](O)[C@H]1O", "note": "(stereo partly drawn) [SFαC (13), saturated farnesyl-α-cellobioside]", "values": [{"measurement": "PAO1-EGFP biofilm on stainless steel coupons (CLSM)", "setting": "PAO1-EGFP biofilm", "result": "decreased the fluorescence signal significantly"}, {"measurement": "Change of GFP fluorescence, rhl reporter strain PAO1/prhlI-LVAgfp (antagonist assay)", "setting": "[1]", "result": "neither SFβC (12) nor SFαC (13) caused a significant change in the fluorescence"}, {"measurement": "Change of GFP fluorescence, rhl reporter strain PAO1/prhlI-LVAgfp (antagonist assay)", "setting": "[1]; listed as 13: SFαC", "result": "no significant change in the fluorescence"}]}
